Target: human VR1 (Homo sapiens, UniProt Q8NER1)
Settings: 50 μM capsazepine; HEK-293 clones expressing hVR1; any concentration of capsaicin

Chain of human VR1 (Q8NER1 whole entry): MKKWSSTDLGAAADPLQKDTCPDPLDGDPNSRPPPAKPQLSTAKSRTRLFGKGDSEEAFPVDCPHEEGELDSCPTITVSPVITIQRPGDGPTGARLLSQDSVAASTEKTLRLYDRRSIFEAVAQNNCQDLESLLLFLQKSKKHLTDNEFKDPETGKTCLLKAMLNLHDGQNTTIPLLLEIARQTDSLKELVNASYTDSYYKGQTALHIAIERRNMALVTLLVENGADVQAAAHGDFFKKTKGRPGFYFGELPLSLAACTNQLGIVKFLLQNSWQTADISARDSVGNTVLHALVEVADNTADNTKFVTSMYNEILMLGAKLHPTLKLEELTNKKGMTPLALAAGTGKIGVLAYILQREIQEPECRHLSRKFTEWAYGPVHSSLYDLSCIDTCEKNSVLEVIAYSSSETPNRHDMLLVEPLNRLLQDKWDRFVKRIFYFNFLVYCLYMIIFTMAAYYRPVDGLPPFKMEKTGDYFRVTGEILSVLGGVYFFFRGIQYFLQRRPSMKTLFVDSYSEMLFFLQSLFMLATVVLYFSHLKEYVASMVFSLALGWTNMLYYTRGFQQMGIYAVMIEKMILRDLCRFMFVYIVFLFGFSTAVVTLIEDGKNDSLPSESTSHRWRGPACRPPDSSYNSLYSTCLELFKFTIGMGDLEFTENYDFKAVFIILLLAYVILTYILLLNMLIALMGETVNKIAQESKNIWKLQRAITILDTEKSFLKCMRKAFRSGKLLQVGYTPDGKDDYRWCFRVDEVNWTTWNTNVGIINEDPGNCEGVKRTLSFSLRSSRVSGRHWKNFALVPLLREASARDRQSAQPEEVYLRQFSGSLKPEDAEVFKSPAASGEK

Oc1cc2c(cc1O)CN(C(=S)NCCc1ccc(Cl)cc1)CCC2 [capsazepine]
response to capsaicin in the presence of capsazepine: failed to respond to any concentration of capsaicin

From patent US20050004133A1, “Modulators of VR1 receptor” (priority 2003, published 2005)
